Assay results: ChEMBL document CHEMBL2440005, “Discovery and structure-activity relationships of 6-(benzoylamino)benzoxaboroles as orally active anti-inflammatory agents” (Bioorg Med Chem Lett, 2013)
Active and inactive are the calls of the source. The rule behind the calls is not given here.

Tests used:
[1] = target: Rho-associated protein kinase 2 (Homo sapiens) (UniProt O75116); test: Inhibition of ROCK2 (unknown origin) at 30 uM
[2] = target: Dual specificity mitogen-activated protein kinase kinase 6 (Homo sapiens) (UniProt P52564); test: Inhibition of MKK6 (unknown origin) at 30 uM
[3] = target: Mitogen-activated protein kinase kinase kinase 7 (Homo sapiens) (UniProt O43318); test: Inhibition of TAK1 (unknown origin) at 30 uM
[4] = target: Dual specificity mitogen-activated protein kinase kinase 4 (Homo sapiens) (UniProt P45985); test: Inhibition of MKK4 (unknown origin) at 30 uM
[5] = target: Rho-associated protein kinase 1 (Homo sapiens) (UniProt Q13464); test: Inhibition of ROCK1 (unknown origin) at 30 uM
[6] = target: RAC-alpha serine/threonine-protein kinase (Homo sapiens) (UniProt P31749); test: Inhibition of AKT1 (unknown origin) at 30 uM
[7] = target: Dual specificity mitogen-activated protein kinase kinase 1 (Homo sapiens) (UniProt Q02750); test: Inhibition of MEK1 (unknown origin) at 30 uM
[8] = system: PBMC; test: Cytotoxicity against LPS-stimulated human PBMC assessed as growth inhibition by MTT assay; type: cell-based
[9] = Clearance in mouse at 2 mg/kg, iv; type: ADME, organism-based; parameters: dose 2 mg/kg, route intravenous; conditions: in vivo
[10] = Oral bioavailability in mouse at 4 mg/kg; type: ADME, organism-based; conditions: in vivo
[11] = system: Mus musculus; test: Toxicity in mouse assessed as change in body weight at 30 mg/kg, po qd administered every other day for 20 days relative to untreated control; type: organism-based; parameters: dose 30 mg/kg, route oral; conditions: in vivo, 480 h
[12] = target: Mitogen-activated protein kinase 3 (Homo sapiens) (UniProt P27361); test: Inhibition of ERK1 (unknown origin) at 30 uM
[13] = target: Inhibitor of nuclear factor kappa-B kinase subunit alpha (Homo sapiens) (UniProt O15111); test: Inhibition of IKKalpha (unknown origin) at 30 uM
[14] = system: Mus musculus; test: Antiinflammatory activity in po dosed mouse assessed as inhibition of LPS-induced TNF-alpha production administered 1 hr prior to LPS challenge measured after 1 hr; type: functional, organism-based
[15] = target: Serine/threonine-protein kinase TBK1 (Homo sapiens) (UniProt Q9UHD2); test: Inhibition of TBK1 (unknown origin) at 30 uM
[16] = target: Mitogen-activated protein kinase 11 (Homo sapiens) (UniProt Q15759); test: Inhibition of p38beta (unknown origin) at 30 uM
[17] = target: Prostaglandin G/H synthase 1 (Homo sapiens) (UniProt P23219); test: Inhibition of COX1 (unknown origin) up to 25 uM
[18] = Cmax in mouse at 4 mg/kg, po; type: ADME, organism-based; parameters: dose 4 mg/kg, route oral; conditions: in vivo
[19] = system: Mus musculus; test: Antiinflammatory activity in po dosed mouse assessed as inhibition of LPS-induced IL-6 production administered 1 hr prior to LPS challenge measured after 1 hr; type: functional, organism-based
[20] = AUC (0 to 24 hrs) in mouse at 4 mg/kg, po; type: ADME, organism-based; parameters: time < 24 hr, dose 4 mg/kg, route oral; conditions: plasma
[21] = target: RAC-beta serine/threonine-protein kinase (Homo sapiens) (UniProt P31751); test: Inhibition of AKT2 (unknown origin) at 30 uM
[22] = target: Protein kinase C alpha type (Homo sapiens) (UniProt P17252); test: Inhibition of PKCalpha (unknown origin) at 30 uM

Prostaglandin G/H synthase 1 (Homo sapiens), sequence (P23219 whole entry): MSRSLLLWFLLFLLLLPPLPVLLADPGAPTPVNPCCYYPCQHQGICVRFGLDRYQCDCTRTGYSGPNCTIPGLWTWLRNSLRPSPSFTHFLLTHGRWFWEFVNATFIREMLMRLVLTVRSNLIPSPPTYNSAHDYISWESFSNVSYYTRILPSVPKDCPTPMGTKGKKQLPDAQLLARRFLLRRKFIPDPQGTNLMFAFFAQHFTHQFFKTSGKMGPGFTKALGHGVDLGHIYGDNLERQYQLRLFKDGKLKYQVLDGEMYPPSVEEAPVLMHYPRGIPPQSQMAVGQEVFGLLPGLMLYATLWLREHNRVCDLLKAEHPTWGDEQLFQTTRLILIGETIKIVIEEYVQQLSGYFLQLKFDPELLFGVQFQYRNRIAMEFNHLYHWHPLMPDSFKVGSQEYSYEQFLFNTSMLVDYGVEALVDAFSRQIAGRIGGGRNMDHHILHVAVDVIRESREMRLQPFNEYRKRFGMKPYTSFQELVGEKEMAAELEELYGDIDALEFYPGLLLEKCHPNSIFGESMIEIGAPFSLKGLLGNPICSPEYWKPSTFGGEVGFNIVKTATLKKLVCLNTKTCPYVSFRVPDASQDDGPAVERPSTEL
Dual specificity mitogen-activated protein kinase kinase 6 (Homo sapiens), sequence (P52564 whole entry): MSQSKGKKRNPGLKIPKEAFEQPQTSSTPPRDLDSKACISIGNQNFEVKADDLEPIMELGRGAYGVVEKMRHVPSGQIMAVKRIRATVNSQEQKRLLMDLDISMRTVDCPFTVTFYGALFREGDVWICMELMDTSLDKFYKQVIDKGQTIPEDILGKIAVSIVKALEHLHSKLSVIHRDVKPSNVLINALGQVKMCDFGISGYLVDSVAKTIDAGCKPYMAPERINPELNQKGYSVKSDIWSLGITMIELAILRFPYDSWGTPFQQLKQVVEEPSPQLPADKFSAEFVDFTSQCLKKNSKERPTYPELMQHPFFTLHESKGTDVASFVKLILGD
Mitogen-activated protein kinase kinase kinase 7 (Homo sapiens), sequence (O43318 whole entry): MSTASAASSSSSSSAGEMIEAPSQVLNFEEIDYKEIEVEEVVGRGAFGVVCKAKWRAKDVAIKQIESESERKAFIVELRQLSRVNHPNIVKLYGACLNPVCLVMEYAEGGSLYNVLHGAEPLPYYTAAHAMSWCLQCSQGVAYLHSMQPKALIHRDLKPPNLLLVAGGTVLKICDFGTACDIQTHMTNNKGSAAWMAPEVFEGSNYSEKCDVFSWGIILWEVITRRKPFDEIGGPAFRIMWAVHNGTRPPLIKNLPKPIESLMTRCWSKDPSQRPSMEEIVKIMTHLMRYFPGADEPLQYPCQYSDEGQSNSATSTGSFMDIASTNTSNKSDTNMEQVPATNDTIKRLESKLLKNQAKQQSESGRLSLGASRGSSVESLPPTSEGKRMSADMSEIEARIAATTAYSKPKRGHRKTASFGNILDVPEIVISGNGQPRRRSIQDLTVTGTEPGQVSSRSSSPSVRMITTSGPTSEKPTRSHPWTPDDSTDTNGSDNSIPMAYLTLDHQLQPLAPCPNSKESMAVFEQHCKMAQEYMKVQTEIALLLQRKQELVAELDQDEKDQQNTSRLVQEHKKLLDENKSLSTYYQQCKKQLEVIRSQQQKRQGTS
Rho-associated protein kinase 1 (Homo sapiens), sequence (Q13464 2-1354 limits assumed): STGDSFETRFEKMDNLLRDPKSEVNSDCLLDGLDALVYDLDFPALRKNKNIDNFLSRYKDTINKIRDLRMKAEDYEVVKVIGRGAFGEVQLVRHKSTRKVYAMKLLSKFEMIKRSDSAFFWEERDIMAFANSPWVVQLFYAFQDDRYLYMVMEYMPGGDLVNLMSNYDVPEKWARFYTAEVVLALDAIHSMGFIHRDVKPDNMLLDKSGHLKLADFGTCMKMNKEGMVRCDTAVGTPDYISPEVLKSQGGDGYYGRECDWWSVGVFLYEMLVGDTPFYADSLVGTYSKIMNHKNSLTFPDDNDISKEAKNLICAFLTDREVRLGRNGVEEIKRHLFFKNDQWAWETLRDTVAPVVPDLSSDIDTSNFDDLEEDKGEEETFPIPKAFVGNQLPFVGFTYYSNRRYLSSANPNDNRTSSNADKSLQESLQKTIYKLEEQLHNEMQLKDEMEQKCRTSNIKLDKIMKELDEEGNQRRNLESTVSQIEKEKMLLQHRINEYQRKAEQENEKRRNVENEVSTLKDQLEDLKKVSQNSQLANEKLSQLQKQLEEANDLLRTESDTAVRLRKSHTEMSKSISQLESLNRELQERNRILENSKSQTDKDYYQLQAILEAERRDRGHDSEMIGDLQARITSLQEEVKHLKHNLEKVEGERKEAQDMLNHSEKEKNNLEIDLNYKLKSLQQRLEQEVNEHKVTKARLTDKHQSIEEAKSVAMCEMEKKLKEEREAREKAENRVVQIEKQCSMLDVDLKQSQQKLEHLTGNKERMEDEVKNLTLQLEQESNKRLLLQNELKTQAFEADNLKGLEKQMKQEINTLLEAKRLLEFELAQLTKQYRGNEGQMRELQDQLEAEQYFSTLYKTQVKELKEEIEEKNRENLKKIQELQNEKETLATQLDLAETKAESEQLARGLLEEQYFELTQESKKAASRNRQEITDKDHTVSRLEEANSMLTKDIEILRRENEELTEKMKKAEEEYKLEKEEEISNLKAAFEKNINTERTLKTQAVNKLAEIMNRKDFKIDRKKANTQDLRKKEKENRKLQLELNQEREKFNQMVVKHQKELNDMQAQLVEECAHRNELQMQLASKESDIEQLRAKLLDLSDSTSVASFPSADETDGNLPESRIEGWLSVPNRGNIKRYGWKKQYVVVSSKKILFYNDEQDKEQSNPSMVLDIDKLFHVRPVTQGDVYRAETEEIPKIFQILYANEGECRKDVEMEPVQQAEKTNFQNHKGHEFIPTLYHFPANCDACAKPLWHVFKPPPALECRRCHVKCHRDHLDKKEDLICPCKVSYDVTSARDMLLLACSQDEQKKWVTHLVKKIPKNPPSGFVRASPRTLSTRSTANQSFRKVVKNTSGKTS
Rho-associated protein kinase 2 (Homo sapiens), sequence (O75116 whole entry, looked up): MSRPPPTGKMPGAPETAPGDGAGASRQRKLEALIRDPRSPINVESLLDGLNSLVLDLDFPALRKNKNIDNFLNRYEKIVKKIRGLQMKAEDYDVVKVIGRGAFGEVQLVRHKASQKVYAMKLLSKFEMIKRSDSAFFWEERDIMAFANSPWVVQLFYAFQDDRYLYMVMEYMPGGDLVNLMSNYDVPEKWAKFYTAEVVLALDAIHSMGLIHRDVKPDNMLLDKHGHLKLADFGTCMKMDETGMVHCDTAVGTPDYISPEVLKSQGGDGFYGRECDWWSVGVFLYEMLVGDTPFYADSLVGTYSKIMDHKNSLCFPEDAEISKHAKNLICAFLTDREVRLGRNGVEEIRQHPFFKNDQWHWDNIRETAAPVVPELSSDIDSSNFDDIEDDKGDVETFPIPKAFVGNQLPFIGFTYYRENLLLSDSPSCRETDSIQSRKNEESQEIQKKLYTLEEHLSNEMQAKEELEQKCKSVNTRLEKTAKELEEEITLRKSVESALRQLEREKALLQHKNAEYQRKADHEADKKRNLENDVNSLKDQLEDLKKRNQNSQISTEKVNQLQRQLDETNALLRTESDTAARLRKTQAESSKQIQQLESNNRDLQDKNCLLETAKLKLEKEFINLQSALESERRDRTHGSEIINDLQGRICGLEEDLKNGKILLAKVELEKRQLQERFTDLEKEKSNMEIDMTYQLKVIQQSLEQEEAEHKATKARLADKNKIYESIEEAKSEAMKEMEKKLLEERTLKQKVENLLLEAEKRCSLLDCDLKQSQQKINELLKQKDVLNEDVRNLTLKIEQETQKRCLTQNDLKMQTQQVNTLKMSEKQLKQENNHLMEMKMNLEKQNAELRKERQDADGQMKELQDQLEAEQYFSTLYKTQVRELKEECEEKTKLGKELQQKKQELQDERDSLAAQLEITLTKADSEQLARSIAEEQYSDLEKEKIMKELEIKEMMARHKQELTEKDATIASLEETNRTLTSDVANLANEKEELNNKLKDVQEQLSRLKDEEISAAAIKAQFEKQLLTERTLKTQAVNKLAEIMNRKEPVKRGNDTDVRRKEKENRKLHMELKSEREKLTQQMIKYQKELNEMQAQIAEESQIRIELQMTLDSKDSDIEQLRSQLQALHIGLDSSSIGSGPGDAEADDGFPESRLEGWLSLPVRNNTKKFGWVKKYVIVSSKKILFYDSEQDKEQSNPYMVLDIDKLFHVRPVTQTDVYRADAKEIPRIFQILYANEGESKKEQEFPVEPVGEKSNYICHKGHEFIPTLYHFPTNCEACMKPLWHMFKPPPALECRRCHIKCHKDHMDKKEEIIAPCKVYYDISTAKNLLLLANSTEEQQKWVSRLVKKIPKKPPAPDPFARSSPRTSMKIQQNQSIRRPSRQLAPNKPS

inhibition [1]: inactive
inhibition [2]: inactive
inhibition [3]: inactive
inhibition [4]: inactive
inhibition [5]: inactive
inhibition [6]: inactive
inhibition [7]: inactive
clearance [9]: 0.683 mL/min/kg
bioavailability [10]: 71%
inhibition [12]: inactive
inhibition [13]: inactive
inhibition [15]: inactive
inhibition [16]: inactive
inhibition [17]: inactive
Cmax [18]: 5650 ng/mL
AUC(0-t) at 24 h [20]: 70100 ng·h/mL
inhibition [21]: inactive
inhibition [22]: 62%
Structure (SMILES): O=C(Nc1ccc2c(c1)B(O)OC2)c1c(C(F)(F)F)ccc(Cl)c1F
IC50 [8]: > 100 µM
Activity [11]: Non-toxic
inhibition [14]: Dose-dependent effect
inhibition [19]: Dose-dependent effect
